Among the data in ChEMBL document CHEMBL1126450, “Semisynthetic modification of hygromycin A. 3. synthesis and antibacterial activity of aminocyclitol analogs” (1992) are MIC values, retold here.

Structures are written as SMILES. In brackets after ≈: the same amount, converted by molar mass. Where only a bound is given, the exact number is not on record here.

For assay [1], the system named is Brachyspira hyodysenteriae. The assay can be described thus: The minimum inhibitory concentration (MIC) of the cyclohexylamide analogs against Serpulina hyodysenteriae. It is filed as functional.
The test system of assay [2] is Pasteurella multocida. The experiment in a line: The minimum inhibitory concentration (MIC) of the cyclohexylamide analogs against Pasteurella multocida. It is filed as functional.

In general, MIC refers to the lowest concentration found to suppress growth. The low end stands for greater potency, the high end for weaker potency. Turning to `CO[C@@H]1[C@@H](O)[C@H]2OCO[C@H]2[C@H](O)[C@@H]1NC(=O)/C(C)=C\c1ccc(O[C@@H]2O[C@H](C(C)=O)[C@@H](O)[C@@H]2O)c(O)c1`, the MIC in assay [1] came out at 3.13 µg/mL (≈ 5.96 µM); in assay [2] it was 12.5 µg/mL (≈ 23.8 µM).

In the case of `CC(=O)[C@H]1O[C@@H](Oc2ccc(/C=C(\C)C(=O)N[C@@H]3[C@H](O)[C@@H](O)[C@H]4OCO[C@H]4[C@@H]3O)cc2O)[C@@H](O)[C@@H]1O` [HYGROMYCIN A], the MIC in assay [1] and in assay [2] was 1.56 µg/mL (≈ 3.05 µM) each time.

Take `CC(=O)[C@H]1O[C@@H](Oc2ccc(/C=C(/C)C(=O)N[C@H]3[C@@H](O)[C@@H]4OCO[C@@H]4[C@H](O)[C@@H]3O)cc2O)[C@@H](O)[C@@H]1O`: the values for the MIC in assay [1] and in assay [2] were 3.13 µg/mL (≈ 6.12 µM) and 12.5 µg/mL (≈ 24.4 µM), respectively.

`CC(=O)[C@H]1O[C@@H](Oc2ccc(/C=C(\C)C(=O)N[C@H]3C4OC(C5OCOC54)[C@H]3O)cc2O)[C@@H](O)[C@@H]1O` (some centres undefined): the MIC in assay [1] and in assay [2] was over 200 µg/mL each time.

For the molecule `CO[C@@H]1[C@@H](O)[C@@H](NC(=O)/C(C)=C\c2ccc(O[C@@H]3O[C@H](C(C)=O)[C@@H](O)[C@@H]3O)c(O)c2)[C@@H](O)[C@@H]2OCO[C@H]12`, the MIC in assay [1] came out at 25 µg/mL (≈ 47.6 µM); in assay [2] it was 100 µg/mL (≈ 190 µM).

For `CO[C@@H]1[C@H](NC(=O)/C(C)=C\c2ccc(O[C@@H]3O[C@H](C(C)=O)[C@@H](O)[C@@H]3O)c(O)c2)[C@H](O)[C@@H](O)[C@H]2OCO[C@H]21`, the values for the MIC in assay [1] and in assay [2] were 6.25 µg/mL (≈ 11.9 µM) and 12.5 µg/mL (≈ 23.8 µM), respectively.

As for `CO[C@@H]1[C@H](O)[C@@H](O)[C@@H](NC(=O)/C(C)=C\c2ccc(O[C@@H]3O[C@H](C(C)=O)[C@@H](O)[C@@H]3O)c(O)c2)[C@@H](O)[C@@H]1OC`, the MIC in assay [1] is 100 µg/mL (≈ 190 µM); in assay [2], over 400 µg/mL.
